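These data come from cells grown in 96-well plates and exposed to compound for 48 hours at five concentrations. Definition used: TGI = concentration required for complete inhibition of growth.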 Where only a bound is given, the exact number is not on record here.

Test systems include MDA-MB-435; BT-549 breast; EKVX NSCLC; CAKI-1 renal; MDA-N; HT29 colon; OVCAR-3 ovarian; LOX IMVI melanoma; SK-MEL-5 melanoma; M14 melanoma; NCI-H226 lung; RXF 393 renal.
Holding throughout (test): NCI tumour cell line growth inhibition, 48 h

Regarding `Oc1c(Br)cc(/C=C/c2ccnc(/C=C/c3cc(Br)c(O)c(Br)c3)c2)cc1Br`, the TGI in the assay with MDA-MB-435 is 63 µM; in the assay with BT-549 breast, over 100 µM; with EKVX NSCLC, 56.4 µM; in the assay on CAKI-1 renal, over 100 µM; in the assay with MDA-N, 91.3 µM; in the assay with HT29 colon it was 40.2 µM. For the same molecule, the TGI in the assay on OVCAR-3 ovarian is 53.1 µM; with LOX IMVI melanoma, over 100 µM; in the assay on SK-MEL-5 melanoma, 41 µM; with M14 melanoma, 54.9 µM.

In the case of `O=C(O)c1ccccc1C(=O)NCC1S(=O)(=O)OCCOS1(=O)=O`, the TGI in the assay on MDA-MB-435, in the assay with NCI-H226 lung, in the assay on EKVX NSCLC, in the assay on CAKI-1 renal, in the assay on MDA-N and in the assay on RXF 393 renal was over 100 µM each time. Moreover, the TGI in the assay with HT29 colon, in the assay with OVCAR-3 ovarian, in the assay with LOX IMVI melanoma, with SK-MEL-5 melanoma and with M14 melanoma was over 100 µM in each case.

For `COC(=O)CCC(=O)c1ccc2c(c1)CCC2`, the TGI in the assay on MDA-MB-435, with EKVX NSCLC, in the assay on CAKI-1 renal, in the assay with MDA-N, in the assay with RXF 393 renal and in the assay with HT29 colon was over 100 µM throughout. Besides, the TGI in the assay on OVCAR-3 ovarian, with LOX IMVI melanoma, in the assay on SK-MEL-5 melanoma and in the assay on M14 melanoma was over 100 µM each time.

For `O=C(Nc1ccc(C(F)(F)F)cc1)NC(F)(F)F`, the TGI in the assay on MDA-MB-435, in the assay with BT-549 breast, with EKVX NSCLC, in the assay on CAKI-1 renal, with MDA-N and in the assay on RXF 393 renal was over 100 µM each time. Besides, the TGI in the assay on HT29 colon, in the assay on LOX IMVI melanoma, in the assay with SK-MEL-5 melanoma and in the assay with M14 melanoma was over 100 µM each time.

For the molecule `COc1ccc(S(=O)(=O)N2C(=O)CCC2C(=O)NC(N)=O)cc1` (centres undefined), the TGI in the assay with MDA-MB-435, in the assay on NCI-H226 lung, in the assay with BT-549 breast, with EKVX NSCLC, in the assay on CAKI-1 renal and in the assay with MDA-N was over 100 µM throughout. In addition, the TGI in the assay on HT29 colon, in the assay on OVCAR-3 ovarian, in the assay with LOX IMVI melanoma, in the assay on SK-MEL-5 melanoma and in the assay on M14 melanoma was over 100 µM each time.

On to `Cc1c(C)c2ccc(OCC(O)COC(C)C)c(C)c2oc1=O` (centres undefined), for which the TGI is over 100 µM in the assay on EKVX NSCLC; over 100 µM in the assay on CAKI-1 renal; 33 µM in the assay on MDA-N; over 100 µM in the assay on HT29 colon; over 100 µM in the assay on OVCAR-3 ovarian; 42.2 µM in the assay with LOX IMVI melanoma. Also, the TGI worked out at 30.2 µM in the assay with SK-MEL-5 melanoma and 42 µM with M14 melanoma.

With `CSc1ncnc2c1ncn2CCC(=O)O`, the TGI with MDA-MB-435, with NCI-H226 lung, with EKVX NSCLC, in the assay with CAKI-1 renal, in the assay with MDA-N and in the assay on RXF 393 renal was over 100 µM throughout. Also, the TGI in the assay on HT29 colon, in the assay with OVCAR-3 ovarian, in the assay with LOX IMVI melanoma, with SK-MEL-5 melanoma and with M14 melanoma was over 100 µM each time.

Regarding `OC1(C(Sc2cc(C(F)(F)F)cc(C(F)(F)F)c2)Sc2cc(C(F)(F)F)cc(C(F)(F)F)c2)C=CCCC1` (centres undefined), the TGI in the assay with MDA-MB-435 is 7.03 µM; in the assay with BT-549 breast, 9.89 µM; in the assay with EKVX NSCLC, 6.78 µM; in the assay with CAKI-1 renal it was 6.33 µM; with MDA-N it was 8.16 µM; in the assay with RXF 393 renal, 4.77 µM. For the same molecule, the TGI in the assay on HT29 colon came to 7.24 µM; in the assay with OVCAR-3 ovarian it was 6.14 µM; in the assay on LOX IMVI melanoma, 5.9 µM; in the assay on SK-MEL-5 melanoma it was 16.6 µM; in the assay with M14 melanoma, 6.53 µM.

For the molecule `O=C1/C(=C/c2cccc(Cl)c2)CCCc2ccccc21`, the TGI was 31.6 µM in the assay with MDA-MB-435; 30.7 µM in the assay with NCI-H226 lung; 44.5 µM in the assay with BT-549 breast; 35.9 µM with EKVX NSCLC; 94.5 µM with CAKI-1 renal; 31.9 µM in the assay with MDA-N. Also, the TGI in the assay on HT29 colon came to 30.9 µM; with OVCAR-3 ovarian, 55.8 µM; in the assay with LOX IMVI melanoma it was 32.8 µM; in the assay with M14 melanoma, 29.9 µM.

For `CSC1=N/C(=C\c2ccc(Cl)cc2)C(=O)N1CN1CCCCC1`, the TGI was over 100 µM in the assay with MDA-MB-435; over 100 µM with NCI-H226 lung; 53.3 µM in the assay on EKVX NSCLC; over 100 µM in the assay on MDA-N; over 100 µM in the assay with HT29 colon; over 100 µM in the assay with OVCAR-3 ovarian. Besides, the TGI in the assay on LOX IMVI melanoma, with SK-MEL-5 melanoma and in the assay on M14 melanoma was over 100 µM each time.

Take `COc1ccc(C(CC2(c3ccc(OC)cc3)SCCCS2)NC(C)=O)cc1` (centres undefined): the TGI in the assay with MDA-MB-435, with BT-549 breast, in the assay on EKVX NSCLC, in the assay on CAKI-1 renal, with MDA-N and with RXF 393 renal was over 100 µM each time. The TGI was over 100 µM in the assay on HT29 colon; over 100 µM in the assay on OVCAR-3 ovarian; over 100 µM with LOX IMVI melanoma; 37.7 µM in the assay with SK-MEL-5 melanoma; over 100 µM with M14 melanoma.

Take `CC1=C(C#N)C(=C(C#N)C#N)OC1(C)Cc1ccccc1` (centres undefined): the TGI was over 100 µM in the assay on MDA-MB-435; 59.3 µM with NCI-H226 lung; over 100 µM in the assay with BT-549 breast; over 100 µM with EKVX NSCLC; 50.9 µM in the assay on CAKI-1 renal; 37.6 µM in the assay with RXF 393 renal. Besides, the TGI was 78.6 µM in the assay with HT29 colon; 74.9 µM in the assay on OVCAR-3 ovarian; 41 µM in the assay with LOX IMVI melanoma; over 100 µM in the assay with SK-MEL-5 melanoma; over 100 µM with M14 melanoma.

In the case of `CC1=NN(c2nc(N)nc(CN3CCOCC3)n2)C(C)(C)C1`, the TGI with MDA-MB-435 was over 100 µM; in the assay with NCI-H226 lung, over 100 µM; in the assay with BT-549 breast, over 100 µM; in the assay on EKVX NSCLC, over 100 µM; in the assay on CAKI-1 renal, 40.1 µM; in the assay with RXF 393 renal, over 100 µM. Further, the TGI with HT29 colon is over 100 µM; with OVCAR-3 ovarian it was over 100 µM; in the assay with LOX IMVI melanoma, 28.5 µM; in the assay with SK-MEL-5 melanoma it was over 100 µM; in the assay on M14 melanoma, over 100 µM.

Source of the values: PubChem BioAssay (NCI).
